Assay results as given in US20260193264A1, “BENZOYPARAZINE PYRAZINES AND THEIR USES” (FOGHORN THERAPEUTICS INC., priority 2022, published 2026).

Assays:
[1] = target: T1, HiBiT-BRM fusion protein in stable HeLa cell line (Homo sapiens, UniProt P51531); assay: HiBiT-BRM cell-based degradation assay (Nano-Glo HiBiT Lytic Detection, 24 h); design: DC50: scale not given here; conditions: HeLa HiBiT-BRM cells; for DC50: read-out: BRM HiBit Degradation IC50; for BRM HiBit Degradation Maximum (%): top dose 30 μM
T1 construct: expressed in transfected cells
Procedure, shortened: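 HiBiT-tagged BRM levels in a stable HeLa line are measured after one day of compound treatment (up to 30 μM final, duplicate 10-point curves) by adding LgBiT lytic reagent and reading bioluminescence; values are expressed relative to vehicle and a 2 μM degrader control.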

[2] = target: T2, HiBit-BRG1 fusion protein in stable HeLa cell line expressing HiBit-BRG1 and LgBit (Homo sapiens, UniProt P51532); assay: HiBiT-BRG1 cell-based degradation assay (Nano-Glo HiBiT, 24 h); conditions: HeLa HiBit-BRG1/LgBit cells; for Dmax: top dose 30 μM, read-out: BRG1 HiBit Degradation Maximum (%); for DC50: read-out: BRMG1 HiBit Degradation IC50
T2 construct: expressed in transfected cells
Procedure, shortened: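 Degradation calculated from NanoBiT luminescence relative to DMSO-treated cells (high) and cells given 2 μM known BRM/BRG1 degrader (low). HeLa cells stably expressing HiBiT-BRG1 plus LgBiT were exposed to compound for 24 h before lytic HiBiT detection.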

T2 sequence (P51532 whole entry, the tested form may be a part): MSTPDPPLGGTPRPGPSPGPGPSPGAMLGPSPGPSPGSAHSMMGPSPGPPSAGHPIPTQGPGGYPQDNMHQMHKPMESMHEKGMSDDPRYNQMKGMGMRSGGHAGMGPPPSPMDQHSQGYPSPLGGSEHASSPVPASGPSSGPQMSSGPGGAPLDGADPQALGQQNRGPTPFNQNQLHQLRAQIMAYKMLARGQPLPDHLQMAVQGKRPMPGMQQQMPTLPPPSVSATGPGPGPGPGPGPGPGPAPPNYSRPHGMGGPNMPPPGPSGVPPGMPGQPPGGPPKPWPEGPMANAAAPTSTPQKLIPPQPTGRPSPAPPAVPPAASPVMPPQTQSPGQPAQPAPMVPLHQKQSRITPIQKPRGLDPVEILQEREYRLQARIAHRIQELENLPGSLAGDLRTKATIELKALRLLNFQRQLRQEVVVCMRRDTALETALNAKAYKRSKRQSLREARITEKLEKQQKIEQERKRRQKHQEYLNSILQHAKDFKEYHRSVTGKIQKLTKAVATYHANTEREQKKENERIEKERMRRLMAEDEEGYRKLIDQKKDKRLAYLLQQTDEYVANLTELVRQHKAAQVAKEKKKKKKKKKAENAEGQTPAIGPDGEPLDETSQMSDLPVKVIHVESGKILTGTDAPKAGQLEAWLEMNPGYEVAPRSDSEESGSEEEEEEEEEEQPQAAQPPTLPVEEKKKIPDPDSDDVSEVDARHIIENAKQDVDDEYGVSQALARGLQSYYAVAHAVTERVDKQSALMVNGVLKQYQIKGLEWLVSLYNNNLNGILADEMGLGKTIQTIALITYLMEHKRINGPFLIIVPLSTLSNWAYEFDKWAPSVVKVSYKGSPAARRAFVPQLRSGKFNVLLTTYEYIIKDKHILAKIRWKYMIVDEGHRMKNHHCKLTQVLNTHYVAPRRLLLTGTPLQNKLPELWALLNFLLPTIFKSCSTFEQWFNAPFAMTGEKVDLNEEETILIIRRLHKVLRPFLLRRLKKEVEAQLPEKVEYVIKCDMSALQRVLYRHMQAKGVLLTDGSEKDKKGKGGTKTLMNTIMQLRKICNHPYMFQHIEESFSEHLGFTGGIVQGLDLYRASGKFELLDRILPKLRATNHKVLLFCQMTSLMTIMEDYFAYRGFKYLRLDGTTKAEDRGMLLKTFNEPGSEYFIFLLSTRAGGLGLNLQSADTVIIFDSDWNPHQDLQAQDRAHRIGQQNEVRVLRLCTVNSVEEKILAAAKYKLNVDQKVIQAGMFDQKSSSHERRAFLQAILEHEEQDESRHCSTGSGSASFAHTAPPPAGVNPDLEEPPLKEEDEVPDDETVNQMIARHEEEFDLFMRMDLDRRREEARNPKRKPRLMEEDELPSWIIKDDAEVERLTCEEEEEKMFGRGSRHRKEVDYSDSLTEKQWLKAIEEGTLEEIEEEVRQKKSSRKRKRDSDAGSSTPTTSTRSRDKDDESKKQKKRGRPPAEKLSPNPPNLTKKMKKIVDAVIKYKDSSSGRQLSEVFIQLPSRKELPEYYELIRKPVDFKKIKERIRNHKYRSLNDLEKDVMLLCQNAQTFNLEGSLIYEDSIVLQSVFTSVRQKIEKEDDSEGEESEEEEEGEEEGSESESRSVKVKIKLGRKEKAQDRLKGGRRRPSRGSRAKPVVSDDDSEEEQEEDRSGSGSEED
T1 sequence (P51531 whole entry, the tested form may be a part): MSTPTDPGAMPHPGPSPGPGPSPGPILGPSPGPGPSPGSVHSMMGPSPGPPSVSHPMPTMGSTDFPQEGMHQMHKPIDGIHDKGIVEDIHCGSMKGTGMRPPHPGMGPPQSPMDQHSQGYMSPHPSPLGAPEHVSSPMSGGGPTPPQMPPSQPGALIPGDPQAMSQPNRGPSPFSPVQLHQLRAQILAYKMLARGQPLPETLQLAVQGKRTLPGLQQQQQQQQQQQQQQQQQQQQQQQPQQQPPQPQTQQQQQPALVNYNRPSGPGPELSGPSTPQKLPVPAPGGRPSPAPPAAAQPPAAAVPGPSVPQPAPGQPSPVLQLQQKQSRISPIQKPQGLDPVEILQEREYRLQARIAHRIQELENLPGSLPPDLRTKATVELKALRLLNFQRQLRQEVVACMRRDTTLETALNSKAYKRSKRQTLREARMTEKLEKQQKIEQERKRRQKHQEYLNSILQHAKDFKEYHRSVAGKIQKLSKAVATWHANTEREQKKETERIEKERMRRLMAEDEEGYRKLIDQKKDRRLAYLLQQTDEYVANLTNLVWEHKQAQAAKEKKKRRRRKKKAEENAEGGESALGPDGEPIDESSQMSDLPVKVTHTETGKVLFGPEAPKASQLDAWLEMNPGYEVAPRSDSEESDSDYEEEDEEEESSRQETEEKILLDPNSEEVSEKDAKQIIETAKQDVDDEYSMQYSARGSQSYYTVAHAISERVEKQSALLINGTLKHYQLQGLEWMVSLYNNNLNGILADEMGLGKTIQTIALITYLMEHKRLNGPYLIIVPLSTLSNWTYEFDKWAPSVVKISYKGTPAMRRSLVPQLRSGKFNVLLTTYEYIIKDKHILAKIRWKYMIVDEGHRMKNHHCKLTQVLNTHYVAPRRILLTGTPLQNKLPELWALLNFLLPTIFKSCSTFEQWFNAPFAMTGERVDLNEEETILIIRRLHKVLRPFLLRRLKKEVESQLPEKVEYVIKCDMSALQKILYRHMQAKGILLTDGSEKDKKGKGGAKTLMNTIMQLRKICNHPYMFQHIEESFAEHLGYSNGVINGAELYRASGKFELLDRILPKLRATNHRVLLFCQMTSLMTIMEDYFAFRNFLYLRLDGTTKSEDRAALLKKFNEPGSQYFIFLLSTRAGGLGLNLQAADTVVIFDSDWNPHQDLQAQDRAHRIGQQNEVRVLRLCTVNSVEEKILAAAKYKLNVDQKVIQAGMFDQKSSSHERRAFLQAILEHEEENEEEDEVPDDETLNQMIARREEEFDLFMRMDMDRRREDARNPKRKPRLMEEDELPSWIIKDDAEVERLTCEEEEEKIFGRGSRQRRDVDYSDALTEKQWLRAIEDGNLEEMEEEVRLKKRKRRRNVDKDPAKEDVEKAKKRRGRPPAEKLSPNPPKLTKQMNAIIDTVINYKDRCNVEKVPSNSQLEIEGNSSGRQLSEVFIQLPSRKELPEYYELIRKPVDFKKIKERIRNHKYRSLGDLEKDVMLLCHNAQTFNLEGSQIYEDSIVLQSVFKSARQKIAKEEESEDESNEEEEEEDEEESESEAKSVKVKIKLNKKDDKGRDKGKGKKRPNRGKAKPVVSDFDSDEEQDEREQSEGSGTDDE

Cc1ncsc1-c1ccc([C@H](C)NC(=O)[C@@H]2C[C@@H](O)CN2C(=O)[C@@H](c2cc(-c3cnc(N4CC[C@@H](c5ccc6cc(-c7ccccc7O)nnc6c5)C4)nc3)no2)C(C)C)cc1 [Compound 20]
DC50 [1]: < 10 nM | BRM HiBit Degradation Maximum (%) [1]: A (“A” indicates maximum degradation ≥75%) | Dmax [2]: < 50%

CC(C)C(C(=O)N1C[C@H](O)C[C@H]1C(=O)N[C@@H](C)c1ccccn1)c1cc(N2CC3(CN(c4ccc5cc(-c6ccccc6O)nnc5c4)C3)C2)no1 (stereo partly drawn) [Compound 120, (2S,4R)-4-hydroxy-1-(2-(3-(6-(3-(2-hydroxyphenyl)cinnolin-7-yl)-2,6-diazaspiro[3.3]heptan-2-yl)isoxazol-5-yl)-3-methylbutanoyl)-N-((S)-1-(pyridin-2-yl)ethyl)pyrrolidine-2-carboxamide]
DC50 [1]: > 10 nM | BRM HiBit Degradation Maximum (%) [1]: A (“A” indicates maximum degradation ≥75%) | Dmax [2]: < 50%

Cc1ncsc1-c1ccc([C@H](C)NC(=O)[C@@H]2C[C@@H](O)CN2C(=O)[C@H](c2cc(-c3cnc(N4CC(c5cc(F)c6cc(-c7ccccc7O)nnc6c5)C4)nc3)no2)C(C)C)cc1 [Compound 27]
DC50 [1]: > 100 nM | BRM HiBit Degradation Maximum (%) [1]: A (“A” indicates maximum degradation ≥75%) | Dmax [2]: < 50%

Cc1ncsc1-c1ccc(C(C)NC(=O)C2CC(O)CN2C(=O)[C@@H](c2cc(N3CCN([C@H]4CCN(Cc5cc6nnc(-c7ccccc7O)cc6cc5Cl)CC4(F)F)CC3)no2)C(C)C)cc1 (stereo in doubt) [Compound 216, (2R,4S)-1-((R)-2-(3-(4-((S)-1-((6-chloro-3-(2-hydroxyphenyl)cinnolin-7-yl)methyl)-3,3-difluoropiperidin-4-yl)piperazin-1-yl)isoxazol-5-yl)-3-methylbutanoyl)-4-hydroxy-N-((R)-1-(4-(4-methylthiazol-5-yl)phenyl)ethyl)pyrrolidine-2-carboxamide]
DC50 [1]: > 10 nM | BRM HiBit Degradation Maximum (%) [1]: A (“A” indicates maximum degradation ≥75%) | Dmax [2]: < 50%

Cc1ncsc1-c1ccc([C@H](C)NC(=O)[C@@H]2C[C@@H](O)CN2C(=O)[C@@H](c2cc(-c3cnc(N4CCC(c5ccc6nnc(-c7ccccc7O)cc6c5)CC4)nc3)no2)C(C)C)cc1 [Compound 42]
DC50 [1]: > 10 nM | BRM HiBit Degradation Maximum (%) [1]: A (“A” indicates maximum degradation ≥75%) | Dmax [2]: < 50%

Cc1ncsc1-c1ccc([C@H](C)NC(=O)[C@@H]2C[C@@H](O)CN2C(=O)[C@H](C(C)C)n2cc(N3CCC4(CCN(c5ccc6cc(-c7ccccc7O)nnc6c5)CC4)CC3)nn2)cc1 [Compound 192, (2S,4R)-4-hydroxy-1-((S)-2-(4-(9-(3-(2-hydroxyphenyl)cinnolin-7-yl)-3,9-diazaspiro [5.5]undecan-3-yl)-1H-1,2,3-triazol-1-yl)-3-methylbutanoyl)-N-((S)-1-(4-(4-methylthiazol-5-yl)phenyl)ethyl)pyrrolidine-2-carboxamide]
DC50 [1]: < 10 nM | BRM HiBit Degradation Maximum (%) [1]: A (“A” indicates maximum degradation ≥75%) | DC50 [2]: < 10 nM | Dmax [2]: > 75%

Cc1ncsc1-c1ccc([C@H](C)NC(=O)[C@@H]2C[C@@H](O)CN2C(=O)C(C(C)C)n2cc(N3CCC4CCN(c5ccc6cc(-c7ccccc7O)nnc6c5)C4C3)nn2)cc1 (stereo partly drawn) [Compound 248, (2S,4R)-4-hydroxy-1-(2-(4-(1-(3-(2-hydroxyphenyl)cinnolin-7-yl)octahydro-6H-pyrrolo[2,3-c]pyridin-6-yl)-1H-1,2,3-triazol-1-yl)-3-methylbutanoyl)-N-((S)-1-(4-(4-methylthiazol-5-yl)phenyl)ethyl)pyrrolidine-2-carboxamide]
DC50 [1]: < 10 nM | BRM HiBit Degradation Maximum (%) [1]: A (“A” indicates maximum degradation ≥75%) | DC50 [2]: > 10 nM | Dmax [2]: > 75%

Cc1ncsc1-c1ccc([C@H](C)NC(=O)[C@@H]2C[C@@H](O)CN2C(=O)C(C(C)C)n2cc(N3CCN(CC4CCN(c5ccc6nnc(-c7ccccc7O)cc6c5)CC4)CC3)nn2)cc1 (some centres unmarked) [Compound 281]
DC50 [1]: < 10 nM | BRM HiBit Degradation Maximum (%) [1]: A (“A” indicates maximum degradation ≥75%) | DC50 [2]: < 10 nM | Dmax [2]: > 75%

Cc1ncsc1-c1ccc([C@H](C)NC(=O)[C@@H]2C[C@@H](O)CN2C(=O)[C@@H](c2cc(N3C[C@@H]4[C@H](C3)[C@H]4c3ccc4nnc(-c5ccccc5O)cc4c3)no2)C(C)C)cc1 [Compound 86, (2S,4R)-4-hydroxy-1-((R)-2-(3-((1R,5S,6S)-6-(3-(2-hydroxyphenyl)cinnolin-6-yl)-3-azabicyclo[3.1.0]hexan-3-yl)isoxazol-5-yl)-3-methylbutanoyl)-N-((S)-1-(4-(4-methylthiazol-5-yl)phenyl)ethyl)pyrrolidine-2-carboxamide]
DC50 [1]: < 10 nM | BRM HiBit Degradation Maximum (%) [1]: A (“A” indicates maximum degradation ≥75%) | Dmax [2]: < 50%

C#Cc1ccc(CNC(=O)[C@@H]2C[C@@H](O)CN2C(=O)[C@H](C(C)C)n2cc(N3CC4(CN(c5ccc6cc(-c7ccccc7O)nnc6c5)C4)C3)nn2)c(OC)c1 [Compound 238, (2S,4R)-N-(4-ethynyl-2-methoxybenzyl)-4-hydroxy-1-((S)-2-(4-(6-(3-(2-hydroxyphenyl)cinnolin-7-yl)-2,6-diazaspiro[3.3]heptan-2-yl)-1H-1,2,3-triazol-1-yl)-3-methylbutanoyl)pyrrolidine-2-carboxamide]
DC50 [1]: < 10 nM | BRM HiBit Degradation Maximum (%) [1]: A (“A” indicates maximum degradation ≥75%) | Dmax [2]: < 50%

Cc1cc(-c2cc([C@H](C(=O)N3C[C@H](O)C[C@H]3C(=O)N[C@@H](C)c3ccc(-c4scnc4C)cc3)C(C)C)on2)cnc1N1CCC(c2ccc3nnc(-c4ccccc4O)cc3c2)CC1 [Compound 64, (2S,4R)-4-hydroxy-1-((R)-2-(3-(6-(4-(3-(2-hydroxyphenyl)cinnolin-6-yl)piperidin-1-yl)-5-methylpyridin-3-yl)isoxazol-5-yl)-3-methylbutanoyl)-N-((S)-1-(4-(4-methylthiazol-5-yl)phenyl)ethyl)pyrrolidine-2-carboxamide]
DC50 [1]: < 10 nM | BRM HiBit Degradation Maximum (%) [1]: A (“A” indicates maximum degradation ≥75%) | DC50 [2]: > 10 nM | Dmax [2]: > 50%

Cc1ncsc1-c1ccc([C@H](C)NC(=O)[C@@H]2C[C@@H](O)CN2C(=O)[C@H](C2CCC2)n2cc(N3CC4(CC(c5ccc6cc(-c7ccccc7O)nnc6c5)C4)C3)nn2)cc1 [Compound 193, (2S,4R)-1-((S)-2-cyclobutyl-2-(4-(6-(3-(2-hydroxyphenyl)cinnolin-7-yl)-2-azaspiro[3.3]heptan-2-yl)-1H-1,2,3-triazol-1-yl)acetyl)-4-hydroxy-N-((S)-1-(4-(4-methylthiazol-5-yl)phenyl)ethyl)pyrrolidine-2-carboxamide]
DC50 [1]: < 10 nM | BRM HiBit Degradation Maximum (%) [1]: A (“A” indicates maximum degradation ≥75%) | DC50 [2]: > 10 nM | Dmax [2]: > 75%

Cc1ncsc1-c1ccc([C@H](C)NC(=O)[C@@H]2C[C@@H](O)CN2C(=O)[C@@H](c2cc(-c3ccnc(N4CCC(c5ccc6cc(-c7ccccc7O)nnc6c5)CC4)n3)no2)C(C)C)cc1 [Compound 52, (2S,4R)-4-hydroxy-1-((R)-2-(3-(2-(4-(3-(2-hydroxyphenyl)cinnolin-7-yl)piperidin-1-yl)pyrimidin-4-yl)isoxazol-5-yl)-3-methylbutanoyl)-N-((S)-1-(4-(4-methylthiazol-5-yl)phenyl)ethyl)pyrrolidine-2-carboxamide]
DC50 [1]: < 10 nM | BRM HiBit Degradation Maximum (%) [1]: A (“A” indicates maximum degradation ≥75%) | DC50 [2]: > 10 nM | Dmax [2]: > 75%

Cc1ncsc1-c1ccc([C@H](C)NC(=O)[C@@H]2C[C@@H](O)CN2C(=O)[C@@H](c2cc(N3CC4(CCC(c5ccc6cc(-c7ccccc7O)nnc6c5)CC4)C3)no2)C(C)C)cc1 [Compound 87, (2S,4R)-4-hydroxy-1-((R)-2-(3-(7-(3-(2-hydroxyphenyl)cinnolin-7-yl)-2-azaspiro[3.5]nonan-2-yl)isoxazol-5-yl)-3-methylbutanoyl)-N-((S)-1-(4-(4-methylthiazol-5-yl)phenyl)ethyl)pyrrolidine-2-carboxamide]
DC50 [1]: < 10 nM | BRM HiBit Degradation Maximum (%) [1]: A (“A” indicates maximum degradation ≥75%) | DC50 [2]: < 10 nM | Dmax [2]: > 75%

Cc1ncsc1-c1ccc([C@H](C)NC(=O)[C@@H]2C[C@@H](O)CN2C(=O)[C@H](C2CCC2)n2cc(N3CC4(CN(c5ccc6cc(-c7ccccc7O)nnc6c5)C4)C3)nn2)cc1 [Compound 211, (2S,4R)-1-((S)-2-cyclobutyl-2-(4-(6-(3-(2-hydroxyphenyl)cinnolin-7-yl)-2,6-diazaspiro[3.3]heptan-2-yl)-1H-1,2,3-triazol-1-yl)acetyl)-4-hydroxy-N-((S)-1-(4-(4-methylthiazol-5-yl)phenyl)ethyl)pyrrolidine-2-carboxamide]
DC50 [1]: < 10 nM | BRM HiBit Degradation Maximum (%) [1]: A (“A” indicates maximum degradation ≥75%) | Dmax [2]: < 50%

Cc1ncsc1-c1ccc([C@H](C)NC(=O)[C@@H]2C[C@@H](O)CN2C(=O)C(C(C)C)n2cc(N3CCC(C4CN(c5ccc6nnc(-c7ccccc7O)cc6c5)C4)C3)nn2)cc1 (stereo partly drawn) [Compound 269, (2S,4R)-4-hydroxy-1-(2-(4-(3-(1-(3-(2-hydroxyphenyl)cinnolin-6-yl)azetidin-3-yl)pyrrolidin-1-yl)-1H-1,2,3-triazol-1-yl)-3-methylbutanoyl)-N-((S)-1-(4-(4-methylthiazol-5-yl)phenyl)ethyl)pyrrolidine-2-carboxamide]
DC50 [1]: < 10 nM | BRM HiBit Degradation Maximum (%) [1]: A (“A” indicates maximum degradation ≥75%) | DC50 [2]: > 10 nM | Dmax [2]: > 75%
